How the values were obtained:
[1] = target: cloned human H3 receptor, stably expressed in SK-N-MC cells (Homo sapiens, UniProt Q9Y5N1); experiment: H3 receptor binding
[2] = target: rat brain SERT (Rattus norvegicus, UniProt P31652); experiment: biochemical
Protocol: The supernatant was removed and re-centrifuged at 15,000 rpm for 30 min. […] Membranes were incubated with 0.6 nM [^3H]-Citalopram plus/minus test compounds for 60 min at 25° C. and harvested by rapid filtration over GF/C glass fiber filters (pretreated with 0.3% polyethylenimine) followed by four washes with ice-cold buffer. Nonspecific binding was defined in the presence of 100 μM fluoxetine.

[3] = target: human SERT (HEK293 membranes) (Homo sapiens, UniProt P31645); experiment: biochemical
Protocol: Homogenized HEK293 (Human Embryonic Kidney) membranes expressing the human SERT were incubated with ^3H-citalopram (SERT) at rt for 1 h in 50 mM Tris, 120 mM NaCl, 5 mM KCl (pH 7.4). Nonspecific binding was determined in the presence of 10 μM fluoxetine for the SERT. The membranes were washed and the radioactivity was counted as above.

[4] = target: human H3 receptor (Homo sapiens, UniProt Q9Y5N1); experiment: Cyclic AMP accumulation (reporter gene assay, SK-N-MC cells)
Sequence of human H3 receptor (Q9Y5N1 whole entry): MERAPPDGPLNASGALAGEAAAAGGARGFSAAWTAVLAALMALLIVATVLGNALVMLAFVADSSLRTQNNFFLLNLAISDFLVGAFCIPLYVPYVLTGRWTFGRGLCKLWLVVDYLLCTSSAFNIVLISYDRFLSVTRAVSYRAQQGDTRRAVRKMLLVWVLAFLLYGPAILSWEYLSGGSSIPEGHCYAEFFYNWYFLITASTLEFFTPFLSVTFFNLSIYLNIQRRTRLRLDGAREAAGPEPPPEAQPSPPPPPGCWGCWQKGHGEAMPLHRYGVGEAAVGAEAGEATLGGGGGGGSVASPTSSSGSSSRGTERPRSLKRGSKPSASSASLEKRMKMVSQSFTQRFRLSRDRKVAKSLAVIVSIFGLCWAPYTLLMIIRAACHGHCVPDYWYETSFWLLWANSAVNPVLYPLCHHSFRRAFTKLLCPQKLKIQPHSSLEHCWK
Protocol: Sublines of SK-N-MC cells were created that expressed a reporter construct and the human H3 receptor. The reporter gene (β-galactosidase) is under the control of multiple cyclic AMP responsive elements. In 96-well plates, histamine was added directly to the cell media followed 5 min later by an addition of forskolin (5 μM final concentration). When appropriate, antagonists were added 10 min prior to agonist addition. After a 6-h incubation at 37° C., the media was aspirated and the cells washed with 200 μL of phosphate-buffered saline followed by a second aspiration. […] Color was developed using 25 μL of 1 mg/mL substrate solution (chlorophenolred β-D galactopyranoside; Roche Molecular Biochemicals, Indianapolis, Ind.).

Sequence of cloned human H3 receptor, stably expressed in SK-N-MC cells (Q9Y5N1 whole entry): as above
Sequence of rat brain SERT (P31652 whole entry): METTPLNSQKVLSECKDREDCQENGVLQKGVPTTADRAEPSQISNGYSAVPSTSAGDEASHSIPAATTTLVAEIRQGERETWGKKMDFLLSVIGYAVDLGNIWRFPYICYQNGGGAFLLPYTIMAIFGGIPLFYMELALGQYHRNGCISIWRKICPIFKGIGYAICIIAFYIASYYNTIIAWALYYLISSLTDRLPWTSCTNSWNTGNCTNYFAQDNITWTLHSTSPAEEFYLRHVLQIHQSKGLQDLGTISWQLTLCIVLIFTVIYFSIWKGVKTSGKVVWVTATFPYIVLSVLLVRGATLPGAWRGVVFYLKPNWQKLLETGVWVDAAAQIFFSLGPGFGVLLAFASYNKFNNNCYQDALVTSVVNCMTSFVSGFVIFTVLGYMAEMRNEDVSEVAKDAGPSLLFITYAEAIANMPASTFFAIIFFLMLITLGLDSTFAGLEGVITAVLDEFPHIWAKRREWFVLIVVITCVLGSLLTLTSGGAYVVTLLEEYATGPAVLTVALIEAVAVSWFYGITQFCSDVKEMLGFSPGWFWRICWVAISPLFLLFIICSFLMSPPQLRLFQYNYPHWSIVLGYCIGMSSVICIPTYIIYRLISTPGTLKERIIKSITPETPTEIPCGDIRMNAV
Sequence of human SERT (HEK293 membranes) (P31645 whole entry): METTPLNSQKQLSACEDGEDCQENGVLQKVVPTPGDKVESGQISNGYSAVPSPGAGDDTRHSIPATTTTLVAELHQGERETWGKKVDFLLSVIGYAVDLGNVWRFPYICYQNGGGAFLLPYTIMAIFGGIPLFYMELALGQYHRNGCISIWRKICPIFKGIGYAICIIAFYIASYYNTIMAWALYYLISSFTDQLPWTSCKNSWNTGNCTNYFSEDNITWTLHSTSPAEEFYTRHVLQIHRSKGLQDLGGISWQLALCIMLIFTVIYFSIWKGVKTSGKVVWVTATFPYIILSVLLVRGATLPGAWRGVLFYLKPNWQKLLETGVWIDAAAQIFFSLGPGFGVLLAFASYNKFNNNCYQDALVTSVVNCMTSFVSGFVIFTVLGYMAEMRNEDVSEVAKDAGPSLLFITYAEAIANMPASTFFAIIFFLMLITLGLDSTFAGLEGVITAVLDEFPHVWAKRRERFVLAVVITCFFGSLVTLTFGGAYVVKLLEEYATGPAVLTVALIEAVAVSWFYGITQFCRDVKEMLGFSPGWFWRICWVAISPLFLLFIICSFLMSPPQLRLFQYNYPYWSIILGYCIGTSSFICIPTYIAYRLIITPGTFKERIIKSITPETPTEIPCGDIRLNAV

Row | Ki [1] [nM] | Ki [2] [nM] | Ki [3] [nM] | SMILES | Kb [4] [nM]
1 | 2 | 59 |  | Cc1ccc(Oc2ccc(C(=O)N3CCCN(C4CC4)CC3)cc2CN(C)C)cn1 [Example 36, (4-Cyclopropyl-[1,4]diazepan-1-yl)-[3-dimethylaminomethyl-4-(6-methyl-pyridin-3-yloxy)-phenyl]-methanone] | 
2 | 0.9 | 15 |  | CNCc1cc(C(=O)N2CCCN(C3CC3)CC2)ccc1Oc1ccccn1 [Example 39, (4-Cyclopropyl-[1,4]diazepan-1-yl)-[3-methylaminomethyl-4-(pyridin-2-yloxy)-phenyl]-methanone] | 
3 | 3 |  |  | CC(C)N1CCCN(C(=O)c2ccc(CN3CCOC(CO)C3)c(Oc3ccccc3)c2)CC1 (stereo not shown) [Example 53, [4-(2-Hydroxymethyl-morpholin-4-ylmethyl)-3-phenoxy-phenyl]-(4-isopropyl-[1,4]diazepan-1-yl)-methanone] | 
4 | 0.6 | 31 |  | CNCc1cc(C(=O)N2CCCN(C3CC3)CC2)ccc1Oc1cccc(F)c1F [Example 32, (4-Cyclopropyl-[1,4]diazepan-1-yl)-[4-(2,3-difluoro-phenoxy)-3-methylaminomethyl-phenyl]-methanone] | 
5 | 2 | 62 |  | CN(Cc1cc(C(=O)N2CCCN(C3CC3)CC2)ccc1Oc1ccc(Cl)cc1)C1CC1 [Example 34, {4-(4-Chloro-phenoxy)-3-[(cyclopropyl-methyl-amino)-methyl]-phenyl}-(4-cyclopropyl-[1,4]diazepan-1-yl)-methanone] | 
6 | 2 | 15 |  | CNCc1cc(C(=O)N2CCCN(C3CC3)CC2)ccc1Oc1cccc(Cl)c1Cl [Example 35, (4-Cyclopropyl-[1,4]diazepan-1-yl)-[4-(2,3-dichloro-phenoxy)-3-methylaminomethyl-phenyl]-methanone] | 
7 | 5.2 | 7.9 | 9.8 | CNCc1cc(C(=O)N2CCCN(C3CCC3)CC2)ccc1Oc1ccc(Cl)c(Cl)c1 [Example 48, (4-Cyclobutyl-[1,4]diazepan-1-yl)-[4-(3,4-dichloro-phenoxy)-3-methylaminomethyl-phenyl]-methanone] | 
8 | 3 |  |  | O=C(c1ccc(CN2CCOCC2)c(Oc2cccnc2)c1)N1CCCN(C2CC2)CC1 [Example 51, (4-Cyclopropyl-[1,4]diazepan-1-yl)-[4-morpholin-4-ylmethyl-3-(pyridin-3-yloxy)-phenyl]-methanone] | 
9 | 0.9 | 28 |  | CNCc1cc(C(=O)N2CCCN(C3CC3)CC2)ccc1Oc1ccc(F)cc1Cl [Example 33, [4-(2-Chloro-4-fluoro-phenoxy)-3-methylaminomethyl-phenyl]-(4-cyclopropyl-[1,4]diazepan-1-yl)-methanone] | 
10 | 2 | 5000 |  | CNCc1cc(C(=O)N2CCCN(C3CC3)CC2)ccc1Sc1ccccn1 [Example 38, (4-Cyclopropyl-[1,4]diazepan-1-yl)-[3-methylaminomethyl-4-(pyridin-2-ylsulfanyl)-phenyl]-methanone] | 
11 | 2 |  |  | COCCN(CCOC)Cc1ccc(C(=O)N2CCCN(C3CC3)CC2)cc1OCc1ccccc1 [Example 54, (3-Benzyloxy-4-{[bis-(2-methoxy-ethyl)-amino]-methyl}-phenyl)-(4-cyclopropyl-[1,4]diazepan-1-yl)-methanone] | 
12 | 4 | 410 |  | CNCc1cc(C(=O)N2CCCN(C3CC3)CC2)ccc1Sc1cc(C(F)(F)F)ccn1 [Example 47, (4-Cyclopropyl-[1,4]diazepan-1-yl)-[3-methylaminomethyl-4-(4-trifluoromethyl-pyridin-2-ylsulfanyl)-phenyl]-methanone] | 
13 | 6 | 17 |  | CNCc1ccc(C(=O)N2CCCN(C3CC3)CC2)cc1Oc1ccc(Cl)c(Cl)c1 [Example 52, (4-Cyclopropyl-[1,4]diazepan-1-yl)-[3-(3,4-dichloro-phenoxy)-4-methylaminomethyl-phenyl]-methanone] | 
14 | 9 |  |  | CC(C)N1CCCN(C(=O)c2ccc(CN3CCCCC3)c(OCc3ccccc3)c2)CC1 [Example 50, (3-Benzyloxy-4-piperidin-1-ylmethyl-phenyl)-(4-isopropyl-[1,4]diazepan-1-yl)-methanone] | 
15 | 11 | 2000 |  | Cc1ccc(Oc2cc(C(=O)N3CCCN(C(C)C)CC3)ccc2CN(C)C)c(C)n1 [Example 49, [4-Dimethylaminomethyl-3-(2,6-dimethyl-pyridin-3-yloxy)-phenyl]-(4-isopropyl-[1,4]diazepan-1-yl)-methanone] | 
16 | 2 | 5 |  | CNCc1cc(C(=O)N2CCCN(C3CC3)CC2)ccc1Sc1ccc(Cl)cc1 [Example 37, [4-(4-Chloro-phenylsulfanyl)-3-methylaminomethyl-phenyl]-(4-cyclopropyl-[1,4]diazepan-1-yl)-methanone] | 
17 | 4 | 2 |  | CNCc1cc(C(=O)N2CCCN(C3CC3)CC2)ccc1OCc1ccc(Cl)c(Cl)c1 [Example 42, (4-Cyclopropyl-[1,4]diazepan-1-yl)-[4-(3,4-dichloro-benzyloxy)-3-methylaminomethyl-phenyl]-methanone] | 

Row | SMILES | Ki [1] [nM] | Ki [2] [nM] | Ki [3] [nM] | Kb [4] [nM]
18 | O=C(c1ccc(CNC2CC2)c(Oc2cccnc2)c1)N1CCCN(C2CC2)CC1 [Example 40, [4-Cyclopropylaminomethyl-3-(pyridin-3-yloxy)-phenyl]-(4-cyclopropyl-[1,4]diazepan-1-yl)-methanone] | 2 | 5000 |  | 0.501
19 | O=C(c1ccc(CN2CCCCC2)c(Oc2cccnc2)c1)N1CCCN(C2CC2)CC1 [Example 41, (4-Cyclopropyl-[1,4]diazepan-1-yl)-[4-piperidin-1-ylmethyl-3-(pyridin-3-yloxy)-phenyl]-methanone] | 1 | 10000 |  | 0.0631
